# Patent US10967000B2, “Cell-penetrating peptide, conjugate comprising same and composition comprising same” (GemVax & KAEL Co., Ltd., priority 2012, dated 2021)
# No end group written: not given here.
# Tests used:
# luciferase in Huh7 cells = assay: Luciferase assay with siRNA-CPP conjugates, Huh7; assay type: cell-based, human; conditions: Huh cell line, siRNA 400 nM, 16 hours
# Protocol: Huh7 (human hepatocellular carcinoma) cells obtained from ATCC was cultured in a RPMI 1640 medium (Hyclon) containing 10% fetal bovine serum (Invitrogen Co., Carlsbad, Calif., USA), […] L-glutamine, 100 ug/ml penicillin and 100 units/ml of streptomycin at 37° C., 5% CO2 incubator.
# (§1) 2×10^5 of Huh7 cells were inserted into each well of a 24 well plate and were grown. Transient transfection on the cells was performed using 2 ug of luciferase objective DNA and lipofectamin 2000 (Invitrogen Co., Carlsbad, Calif., USA). After 4 hours, lipofectamin 2000 was perfectly washed with PBS several times; siRNA of final concentration of […] was treated in 500 ul of Opti-MEM (Invitrogen Co., Carlsbad, Calif., USA) and was reacted at 37° C. incubator for 16 hours. To terminate the reaction, cells were washed with PBS and proteins were lysed using Reporter Lysis Buffer (Progema Co., Madison, Wis., USA) solution and the luminescence was measured by luminometer (Turner BioSystem, Sunnyvale, Calif., USA) using luciferase reagent (Promega Co., Madison, Wis., USA). Efficacy of siRNA was corrected by Bradford protein assay.
# luciferase in CHO cell = assay: Luciferase assay with siRNA-CPP conjugates, CHO; assay type: cell-based
# Protocol: as §1
# To verify cell penetrating property of pep1, siRNA for luciferase purpose was produced produced and luciferase activation was measured using Huh7 (human hepatocelular carcinoma) cells and CHO cell line. The result verified that activation of penetratine and pep1 in siRNA combined with luciferase was reduced approx. 28%, 20% compared with penetratin and pep1 in siRNA combined with control in Huh cell line. […]
substance,measurement,setting,value
"siLuc conjugation with Mercaptoacetyl-Ahx-EARPALLTSRLRFIPK (EARPALLTSRLRFIPK-OH; not fully specified (N-terminus); printed as Mercaptoacetyl-Ahx-EARPALLTSRLRFIPK; also: conjugated to luciferase siRNA; UniProt O14746 611-626, looked up, fragment) [siLuc-pep1, luciferase siRNA conjugated to pep1 via thiol-maleimide]",reduction of luciferase activation compared with the same peptide in siRNA combined with control,luciferase in Huh7 cells,~20%
same,inhibition of luciferase activity,luciferase in CHO cell,about 30%
